{"source": "patent US20120165553A1", "about": "“IMMUNOSTIMULANT” (RIKEN, priority 2010, published 2012)", "key": {"macrophages [1]": {"tested_on": "macrophages", "assay": "cytokine mRNA expression in macrophages stimulated with LPS (real time PCR)", "assay_type": "cell-based, mouse", "conditions": "10 nM BL for 15 minutes, then LPS stimulation, RNA 1 hour later, relative to HPRT mRNA", "protocol": "(§1) 3 mL of 3% thioglycolate medium (Difco Laboratories) was intraperitoneally administered to a BALB/c mouse (female, 8 to 12 weeks age), peritoneal cells were collected 3 days later and cultured in RPMI-1640 medium containing 10% fetal bovine serum (Cansera International Inc.), 5×10^−5M β-mercaptoethanol (Wako Pure Chemical Industries, Ltd.), 20 U/mL penicillin (Meiji Seika Kaisha, Limited) and 100 μg/mL streptomycin (Meiji Seika Kaisha, Limited) at 37° C. under the presence of 5% CO2. After culturing 1×10^6/mL of the peritoneal cells for 3 hours in a 6-well plate (2 mL/well), non-adherent cells were removed and adherent cells were tested as the macrophages. The macrophages were cultured for 15 minutes in the presence or absence of 10 nM BL, subsequently stimulated with R848 (InvivoGen) or LPS (Sigma-Aldrich Corporation) 100 ng/mL, and the RNA was collected 1 hour later using Rneasy Mini Kit (QIAGEN K. K.). Using a Primescript RT reagent kit (TAKARA BIO INC.), cDNA was synthesized from […] of the isolated RNA in accordance with the attached protocol and the real time PCR was carried out using Thermal Cycler Dice Real Time System II (TAKARA BIO INC.) to examine the changes of cytokine (IFN-α, IFN-β, IL-12 subunit p35, IL-12 subunit p40, TNF-α) mRNA expression.\nThe mRNA amounts are shown for IFN-α in FIG. 3, IFN-β in FIG. 4, IL-12 subunit p35 in FIG. 5, IL-12 subunit p40 in FIG. 6 and TNF-α in FIG. 7. The mRNA amount in each Figure is indicated as the relative amount to the mRNA amount of HPRT, which is the housekeeping gene."}, "BALB/c mouse": {"tested_on": "BALB/c mouse", "assay": "antigen (ovalbumin) specific antibody (IgG) production in mouse, serum ELISA", "assay_type": "in vivo", "conditions": "BL 0.2, 1 and 5 mg/Kg of body weight intraperitoneally every other day; serum 2 weeks later; absorbance at 450 nm; FIG. 2", "protocol": "A mixed solution (0.2 mL) of […] of ovalbumin (Sigma-Aldrich Corporation) and 4 mg of aluminum hydroxide (Thermo Scientific Pierce Protein Research Products) was intraperitoneally administered to a BALB/c mouse (female, 8 to 12 weeks old) and BL dissolved in 0.2 mL PBS (0, 0.2, 1 and 5 mg/Kg of body weight) was intraperitoneally administered every other day. The serum was isolated 2 weeks later and measured for the production of immunoglobulin (IgG) specific to the antigen (ovalbumin) using ELISA. ELISA was carried out using a biotinylated anti-mouse IgG antibody (Southern Biotechnology Associates Inc.) as the secondary antibody, streptavidin-HRP (Prozyme, Inc.) and a TMB Microwell Peroxidase Substrate (Kirkegaard & Perry Laboratories, Inc.) as the colorimetric substrate, and the absorbance at 450 nm was measured."}, "macrophages [2]": {"tested_on": "macrophages", "assay": "cytokine mRNA expression in macrophages stimulated with R848 (real time PCR)", "assay_type": "cell-based, mouse", "conditions": "10 nM BL for 15 minutes, then R848 stimulation, RNA 1 hour later, relative to HPRT mRNA", "protocol": "as §1, with “expression. […]” for “expression.”"}, "[3]": {"tested_on": "mouse spleen cells (T cells and B cells)", "assay": "spleen cell proliferation caused by antigen stimulation (BrdU incorporation ELISA)", "assay_type": "cell-based", "conditions": "BL 10 nM; antigen 10 µg/mL of ovalbumin; cultured for 3 days; spleen cells of ovalbumin/aluminum hydroxide immunised BALB/c mouse; FIG. 1", "protocol": "The effect of BL on the spleen cell proliferation caused by an antigen stimulation was examined.\nA mixed solution (0.2 mL) of […] of ovalbumin (Sigma-Aldrich Corporation) and 4 mg of aluminum hydroxide (Thermo Scientific Pierce Protein Research Products) was intraperitoneally administered to a BALB/c mouse (female, 8 to 12 weeks old) and the spleen was collected 2 weeks later. Cells were isolated from the spleen and cultured in RPMI-1640 medium containing 10% fetal bovine serum (Cansera International Inc.), 5×10^−5M β-mercaptoethanol (Wako Pure Chemical Industries, Ltd.), 20 U/mL penicillin (Meiji Seika Kaisha, Limited) and 100 μg/mL streptomycin (Meiji Seika Kaisha, Limited) at 37° C. under the presence of 5% CO2. Cells to which BL (Brassino Co., Ltd.) was added in a concentration of 10 nM and cells to which BL was not added were respectively stimulated by an antigen ([…] of ovalbumin), cultured for 3 days and measured for the incorporated BrdU in the detection of proliferating spleen cells using a cell proliferation ELISA BrdU colorimetric kit (Roche Applied Science)."}}, "data": [{"smiles": "CC(C)[C@H](C)[C@@H](O)[C@H](O)[C@@H](C)[C@H]1CC[C@H]2[C@@H]3COC(=O)[C@H]4C[C@H](O)[C@H](O)C[C@]4(C)[C@H]3CC[C@]12C", "note": "[BL, Brassinolide]", "values": [{"measurement": "IL-12 p35 mRNA expression induction", "setting": "macrophages [1]; FIG. 5", "result": "enhancing"}, {"measurement": "IL-12 p40 mRNA expression induction", "setting": "macrophages [1]; FIG. 6", "result": "enhancing"}, {"measurement": "TNF-α mRNA expression induction", "setting": "macrophages [1]; FIG. 7", "result": "enhancing"}, {"measurement": "antigen specific antibody (IgG) production induced by ovalbumin and aluminum hydroxide", "setting": "BALB/c mouse", "result": "significantly promoted"}, {"measurement": "IFN-α mRNA expression induction", "setting": "macrophages [2]; FIG. 3", "result": "enhancing"}, {"measurement": "IFN-β mRNA expression induction", "setting": "macrophages [2]; FIG. 4", "result": "enhancing"}, {"measurement": "spleen cell proliferation induced by the antigen stimulation (incorporated BrdU)", "setting": "[3]", "result": "significantly promoted"}]}]}
